Where two headings read alike, the source gives them in different places.
Experiments:
[1] = system: Lactobacillus plantarum PN0512; test: Growth of L. plantarum PN0512 in the presence of butanols at different temperatures; type: cell-based; design: key to Growth at 37° C. / Growth at 30° C. / Growth at 25° C.: +: growth observed as an increase in OD600.; −: no growth observed, i.e. no change in OD600
Protocol: Tolerance levels of bacterial strain Lactobacillus plantarum PN0512 (ATCC # PTA-7727) were determined at 25° C., 30° C. and 37° C. as follows. The strain was cultured in S30L medium (i.e., 10 mM ammonium sulfate, 5 mM potassium phosphate buffer, pH 7.0, 50 mM MOPS, pH 7.0, 2 mM MgCl2, 0.7 mM CaCl2, 50 μM MnCl2, 1 μM FeCl3, 1 μM ZnCl2, 1.72 μM CuCl2, 2.53 μM CoCl2, 2.42 μM Na2MoO4, 2 μM thiamine hydrochloride, 10 mM glucose, and 0.2% yeast extract). An overnight culture in the absence of any test compound was started in 15 mL of the S30L medium in a 150 mL flask, with incubation at 37° C. in a shaking water bath. The next morning, the overnight culture was diluted into three 500 mL flasks containing 150 mL of fresh medium to an initial OD600 of about 0.08. Each flask was incubated in a shaking water bath, one each at 25° C., 30° C. and 37° C. Each large culture was allowed to acclimate at the test temperature for at least 0.5 h. […] Growth was followed by measuring OD600 for six hours after addition of the compounds.

E. coli (strain MG1655) = details: for % Survival at 30° C. / % Survival at 37° C. / % Survival at 0° C.: 1 h; for concentration at which E. coli cells were killed: one hour
Protocol: (§1) Using overnight cultures or cells from plates, 30 mL cultures of the microorganisms to be tested were started in the following culture media: • E. coli—Miller's LB medium (Teknova, Half Moon Bay, Calif.): • L. plantarum PN0512—Lactobacilli MRS Broth (BD Diagnostic Systems, Sparks, Md.). The E. coli and L. plantarum cultures were grown at 37° C. aerobically with shaking until the cultures were in log phase and the OD600 was between 0.6 and 0.8. A 50 μL aliquot of each culture was removed for a time zero sample. The remainder of the cultures was divided into six 5 mL portions and placed in six small incubation flasks or tubes. […] The flasks or tubes were incubated at a desired temperature, aerobically without shaking for 1 h. After the incubation with one of the butanols, 2 μL from each of the flasks (and in addition 2 μL of the time zero sample of the culture before exposure to one of the butanols) were pipetted into the “head” wells of a 96 well (8×12) microtiter plate, each containing 198 μL of LB medium to give a 10^−2 dilution of the culture. Subsequently, 10^−3, 10^−4, 10^−5, and 10^−6 serial dilutions of the cultures were prepared as follows. The 10^−3 dilution was prepared by pipetting 20 μL of the sample from the head well into the 180 μL LB medium in the next well using a multi-channel pipette. This procedure was repeated 3 more times on successive wells to prepare the 10^−4, 10^−5, and 10^−6 dilutions. After each liquid transfer, the solution in the well was mixed by pipetting it up and down 10 times with the multi-channel pipetor. A 5 μL aliquot of each dilution was spotted onto an LB plate using a multi-channel pipette starting with the 10^−6 dilution, then the 10^−5, and so on working from more to less dilute without a change of tips. The spots were allowed to soak into the agar by leaving the lid of the plate slightly open for 15 to 30 min in a sterile transfer hood. The plates were covered, inverted, and incubated overnight at 37° C. The following day, the number of colonies in the spots were counted from the different dilutions. The number of living cells/mL in each of the original culture solutions from which the 2 μL was withdrawn was calculated and compared to the number of cells in the control untreated culture to determine the % of the cells surviving.

L. plantarum PN0512 = details: for % Survival at 37° C. / % Survival at 23° C. / % Survival at 0° C. / concentration at which L. plantarum PN0512 cells were killed: one hour
Protocol: as §1

Substance: 1-butanol
- Growth at 37° C. ([1]; 1.0 % w/v 1-butanol): +
- Growth at 37° C. ([1]; 1.2 % w/v 1-butanol): +
- Growth at 37° C. ([1]; 1.4 % w/v 1-butanol): +
- Growth at 25° C. ([1]; 1.5 % w/v 1-butanol): +
- Growth at 30° C. ([1]; 1.5 % w/v 1-butanol): +
- Growth at 37° C. ([1]; 1.5 % w/v 1-butanol): +
- Growth at 37° C. ([1]; 1.6 % w/v 1-butanol): +
- Growth at 37° C. ([1]; 1.8 % w/v 1-butanol): +
- Growth at 25° C. ([1]; 2.0 % w/v 1-butanol): +
- Growth at 30° C. ([1]; 2.0 % w/v 1-butanol): +
- Growth at 37° C. ([1]; 2.0 % w/v 1-butanol): +
- Growth at 37° C. ([1]; 2.1 % w/v 1-butanol): +
- Growth at 37° C. ([1]; 2.2 % w/v 1-butanol): +
- Growth at 37° C. ([1]; 2.3 % w/v 1-butanol): +
- Growth at 25° C. ([1]; 2.4 % w/v 1-butanol): +
- Growth at 30° C. ([1]; 2.4 % w/v 1-butanol): +
- Growth at 37° C. ([1]; 2.4 % w/v 1-butanol): −^2
- Growth at 30° C. ([1]; 2.7 % w/v 1-butanol): +
- Growth at 37° C. ([1]; 2.7 % w/v 1-butanol): −
- Growth at 25° C. ([1]; 2.9 % w/v 1-butanol): +
- Growth at 30° C. ([1]; 2.9 % w/v 1-butanol): −
- Growth at 37° C. ([1]; 2.9 % w/v 1-butanol): −
- Growth at 25° C. ([1]; 3.1 % w/v 1-butanol): +
- Growth at 30° C. ([1]; 3.1 % w/v 1-butanol): −
- Growth at 37° C. ([1]; 3.1 % w/v 1-butanol): −
- Growth at 25° C. ([1]; 3.2 % w/v 1-butanol): −
- Growth at 30° C. ([1]; 3.2 % w/v 1-butanol): −
- Growth at 25° C. ([1]; 3.3 % w/v 1-butanol): −
- Growth at 25° C. ([1]; 3.4 % w/v 1-butanol): −
- Growth at 30° C. ([1]; 3.4 % w/v 1-butanol): −
- concentration in which growth was observed ([1]; 25° C.): 3.1%
- concentration in which growth was not observed ([1]; 30° C.): 2.9%
- concentration in which growth was observed ([1]; 30° C.): 2.7%
- concentration in which growth was not observed ([1]; 37° C.): 2.4%
- concentration in which growth was observed ([1]; 37° C.): 2.3%
- Growth at 37° C. ([1]; […] w/v 1-butanol): −
- concentration with no toxic effect on E. coli cells (E. coli (strain MG1655); 0° C., one hour treatment): ≤ 4.5 % v/v
- % Survival at 30° C. (E. coli (strain MG1655); 1 % v/v 1-butanol): 100%
- % Survival at 37° C. (E. coli (strain MG1655); 1 % v/v 1-butanol): 72%
- % Survival at 30° C. (E. coli (strain MG1655); 1.5 % v/v 1-butanol): 100%
- % Survival at 37° C. (E. coli (strain MG1655); 1.5 % v/v 1-butanol): 20%
- % Survival at 30° C. (E. coli (strain MG1655); 2 % v/v 1-butanol): 100%
- % Survival at 37° C. (E. coli (strain MG1655); 2 % v/v 1-butanol): 0%
- % Survival at 0° C. (E. coli (strain MG1655); 3 % v/v 1-butanol): 100%
- % Survival at 30° C. (E. coli (strain MG1655); 3 % v/v 1-butanol): 0%
- % Survival at 37° C. (E. coli (strain MG1655); 3 % v/v 1-butanol): 0%
- % Survival at 0° C. (E. coli (strain MG1655); 4 % v/v 1-butanol): 100%
- concentration at which E. coli cells were killed (E. coli (strain MG1655); 30° C.): 3 % v/v
- concentration at which E. coli cells were killed (E. coli (strain MG1655); 37° C.): 2 % v/v
- % Survival at 0° C. (E. coli (strain MG1655); […] v/v 1-butanol): 100%
- % Survival at 37° C. (E. coli (strain MG1655); […] v/v 1-butanol): 0%
- concentration with no toxic effect on L. plantarum PN0512 cells (L. plantarum PN0512; 0° C., one hour treatment): ≤ 4.5 % v/v
- % Survival at 37° C. (L. plantarum PN0512; 1 % v/v 1-butanol): 80%
- % Survival at 37° C. (L. plantarum PN0512; 1.5 % v/v 1-butanol): 58%
- % Survival at 23° C. (L. plantarum PN0512; 2 % v/v 1-butanol): 100%
- % Survival at 37° C. (L. plantarum PN0512; 2 % v/v 1-butanol): 29%
- % Survival at 0° C. (L. plantarum PN0512; 3 % v/v 1-butanol): 100%
- % Survival at 23° C. (L. plantarum PN0512; 3 % v/v 1-butanol): 82%
- % Survival at 37° C. (L. plantarum PN0512; 3 % v/v 1-butanol): 0%
- % Survival at 0° C. (L. plantarum PN0512; 4 % v/v 1-butanol): 100%
- % Survival at 23° C. (L. plantarum PN0512; 4 % v/v 1-butanol): 0%
- % Survival at 0° C. (L. plantarum PN0512; 5 % v/v 1-butanol): 0%
- % Survival at 0° C. (L. plantarum PN0512; 5.5 % v/v 1-butanol): 0%
- concentration at which L. plantarum PN0512 cells were killed (L. plantarum PN0512; 23° C.): 3.5 % v/v
- concentration at which L. plantarum PN0512 cells were killed (L. plantarum PN0512; 37° C.): 2.5 % v/v
- % Survival at 0° C. (L. plantarum PN0512; […] v/v 1-butanol): 100%

Reference: US8426174B2, “Method for the production of 2-butanol” (Butamax(TM) Advanced Biofuels LLC, priority 2007, dated 2013)
